Data from patent US10624887B2, “Compositions of (-)-17-(cyclobutylmethyl)morphinan-3,14,-diol” (priority 2010, dated 2020).
Entries after “also recorded” stand apart in the source; their conditions may differ.

Legend:
nociception in rats = experiment: Radiant heat tail flick test; assay type: in vivo, Wistar rats; details: butorphanol 1 mg/kg
Excerpt: The tail flick test was first described by D'Amour and Smith (1941), and remains essentially unchanged in application. (See generally D'Amour, F. E. and Smith, D. L., “A method for determining loss of pain sensation”, J. Pharmacol. Exp. Therap., 72:74-79(1941); Dewey, D. L. and Harris, L. S., The Tail-flick test. In: S. Ehrenpreis and A. Neidle (Eds.), Methods in Narcotic Research, Marcel Dekker, Inc., New York, 1975, pp. 101-109; and Dubner, R. and Ren, K., “Assessing transient and persistent pain in animals” In: P. D. Wall and R. Melzack (Eds.), Textbook of Pain, Churchill Livingstone, London, 1999, pp. 359-369). Quite simply, the tail of a rat or mouse is exposed to radiant heat, and the latency to withdraw is determined. The basal heat intensity is set so that naive rats withdraw their tails within 2 to 3 sec. A cut-off latency of 10 sec (i.e., 3 to 4 times basal control value) is commonly employed to prevent tissue damage. […]
Three groups were employed in the present study with each group comprising of 8 animals. […] Area under the curve was calculated using a graph between % MPE and time. Area under the curve was employed as a quantitative measure of the analgesic effect of the treatments.
Nociceptive threshold was measured with the tail flick test (D'Amour and Smith, 1941). […] Tail flick latency is expressed as a percentage of the maximum possible effect (MPE): […]

[1] = tested on: paclitaxel induced painful neuropathy; experiment: Paclitaxel induced painful neuropathy, mechanical allodynia (von Frey filaments); assay type: in vivo, Wistar rats; details: paclitaxel neuropathic rats
Excerpt: The aim of this study was to evaluate the effect of oral administration of butorphanol in rats with paclitaxel induced painful neuropathy. The primary measurements were made mechanical and thermal allodynia designed to detect effects of the treatment(s) on neuropathic pain.
Wistar rats weighing 250±20 g were maintained on standard laboratory diet and having free access to tap water ad lib were employed in the present study. They were housed in the animal house and were exposed to 12 hr cycle of light and dark. The experiments were conducted in a semi-sound proof laboratory. Care of the animals was in accordance with guidelines for experimentation on animals.
Rats were injected on five alternate days (day 4, 6, 8, 10 & 12) with paclitaxel (2 mg/kg i.p.) using an injection volume of 2 ml/kg. Thus, the cumulative dose of paclitaxel was computed to be 10 mg/kg. […]
Mechano-allodynia was assessed using von Frey filaments. […] Both hind paws were tested for allodynia and the average of the two was recorded as data. Results were expressed in grams and determined before and 30 and 60 min after the administration of the test drugs.
The anti-nociceptive effect was plotted assessed having time (relative to dosing time point) on the x-axis and percent maximum possible effect (% MPE) on the y-axis. The results were expressed as mean±standard error of means (S.E.M.). […]

κ-opioid receptors = κ-opioid receptors (Homo sapiens, UniProt P41145); details: cited from earlier work
Sequence of κ-opioid receptors (P41145 whole entry): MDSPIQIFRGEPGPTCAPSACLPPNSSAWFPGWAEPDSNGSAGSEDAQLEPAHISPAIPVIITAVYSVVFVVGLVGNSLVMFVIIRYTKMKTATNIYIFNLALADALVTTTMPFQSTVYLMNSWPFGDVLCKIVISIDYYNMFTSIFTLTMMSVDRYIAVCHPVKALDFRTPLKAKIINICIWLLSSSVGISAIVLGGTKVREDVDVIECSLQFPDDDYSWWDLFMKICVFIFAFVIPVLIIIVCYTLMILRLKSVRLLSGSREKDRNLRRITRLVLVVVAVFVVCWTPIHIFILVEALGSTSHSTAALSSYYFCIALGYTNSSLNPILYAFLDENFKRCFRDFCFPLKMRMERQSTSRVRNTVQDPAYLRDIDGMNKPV

Question: For `Oc1ccc2c(c1)[C@@]13CCCC[C@@]1(O)[C@@H](C2)N(CC1CCC1)CC3` [butorphanol, (−)17-(Cyclobutylmethyl)morphinan-3,14-diol], which tail flick latency (nociception in rats; intra-gastric, intra-ileal and intra-colonic administration, each, rats) is on record?
Answer: The tail flick latency was “significant increase”.

Question: And the “antinociceptive effect (area under the curve of % MPE vs time), intra-colonic versus intra-gastric or intra-ileal” value (nociception in rats; tail flick, FIG. 13)?
Answer: Its value is “significantly greater antinociceptive effect”.

Question: And the “time of peak effect post-administration (mechanical allodynia)” value ([1]; oral)?
Answer: Its value is 30 min.

Question: And the mechanical withdrawal threshold ([1]; p.o. 0.01, 0.03, 0.1, 0.3 mg/kg, FIG. 17)?
Answer: Its mechanical withdrawal threshold is “dose dependent increase; also recorded: significant increase”.

Question: And the “activity at κ-opioid receptors” value (κ-opioid receptors)?
Answer: Its value is “pure agonist”.
